According to patent US4716109A, “Immunoassay” (Boots-Celltech Diagnostics Limited, priority 1983, dated 1987):
Numbered stars: 1 amine (or outer) side, 2 acyl side, 3 side chain; on linkers, the order of the positions; unused ones are H or OH. Square brackets hold non-standard residues; d marks the D form. Peptide text beside a SMILES is read from it. * marks the point of attachment. X3 = CC(=O)[C@H]1CC[C@H]2[C@@H]3CCC4=CC(=O)CC[C@]4(C)[C@H]3[C@H](OCC(=O)*)C[C@]12C; X1 = CC(=O)C1CCC2C3CCC4=CC(=O)CCC4(C)C3C(OC3OC(C(=O)*)C(O)C(O)C3O)CC12C; Sta = CC(C)C[C@H](N)[C@@H](O)CC(=O)O; X2 = CC(C)CC(N[*:1])C(O)CC(=O)[*:2]

Legend:
[1] = tested on: Monoclonal progesterone antibody 11P12; type: binding; conditions: radioimmunoassay
Excerpt: Monoclonal progesterone antibody was obtained from Dr. Wang of the Imperial Cancer Research Fund Laboratories, Lincolns Inn, London, England. It had been raised against the immunogen progesterone-11 -hemisuccinyl-bovine serum albumin according to the method of V. E. Fantl, D. Y. Wang and R. E. Knyba, J. Steroid Biochem, 1982, 17, 125-130. The monoclonal antibody of choice for use in the specific assay described below is designated 11P12 in the above mentioned publication.
(§1) A radioimmunoassay employing tritiated progesterone and dextran coated charcoal separation of bound and free progesterone was used to assess the immunoreactivity of progesterone derivatives and progesterone-inhibitor conjugates with the monoclonal and polyclonal antisera, by the method of R. B. Heap, R. J. Holdsworth, J. E. Gadsby, J. A. Laing and D. E. Walters, Brit. Vet. J. 1976, 132, 445-464.

[2] = tested on: Polyclonal antiserum to progesterone (18/3); type: binding; conditions: radioimmunoassay, polyclonal antiserum 18/3
Excerpt: (§2) Polyclonal antisera to progesterone were obtained from the Milk Marketing Board, Veterinary Laboratories, Cleeve House, Lower Wick, Worcester, England and from Guildhay Antisera, Division of Clinical Biochemistry, Department of Biochemistry, University of Surrey, Guildford, Surrey, England. The antiserum from the Milk Marketing Board had been raised against the immunogen progesterone-11α -hemisuccinyl-bovine serum albumin and the Guildhay antiserum raised against progesterone-11α -hemisuccinyl-ovalbumin.
as §1

[3] = target: T1, chymosin milk-clotting activity (Bos taurus, UniProt P00794); assay: Milk-clotting assay in microtiter plates; type: biochemical, calf
T1 construct: purchased Sigma Chemical Co. Ltd., or from recombinant prochymosin (E. coli) supplied by Celltech Ltd; host or cells: calf enzyme, or E. coli for the recombinant prochymosin
T1 sequence (P00794 59-381): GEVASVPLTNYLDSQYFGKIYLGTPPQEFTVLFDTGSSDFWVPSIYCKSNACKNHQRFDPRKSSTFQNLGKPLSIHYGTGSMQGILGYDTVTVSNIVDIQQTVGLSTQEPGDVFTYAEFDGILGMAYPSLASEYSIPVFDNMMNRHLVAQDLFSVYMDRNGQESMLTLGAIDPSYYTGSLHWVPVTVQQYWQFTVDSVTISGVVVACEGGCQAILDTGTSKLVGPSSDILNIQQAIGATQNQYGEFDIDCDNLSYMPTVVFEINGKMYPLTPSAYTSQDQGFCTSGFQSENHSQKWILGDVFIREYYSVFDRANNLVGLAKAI
Method: Milk-clotting assays were carried out in the wells of microtiter plates. In each assay, after a suitable reaction time, the microtiter plate was inverted. Where clotting occurred, the clots remained in the wells of the plate, and where there was no clotting, the contents of the wells were decanted.
The general assay procedure was as follows:
20 μl of assay buffer containing 0.2% bovine serum albumin was pipetted into the wells of a microtiter plate. This was followed by 25 μl of assay buffer alone, or assay buffer containing the desired concentration of progesterone-inhibitor conjugate followed by 25 μl of assay buffer alone, or assay buffer containing the desired concentration of progesterone antibody. Then 30 μl of assay buffer containing the desired concentration of chymosin was added. This was followed by 100 μl of a milk substrate solution. The microtiter plate containing the assay mixture was placed in an incubator at 37° C. for 1 hour. At the end of this time the plate was inverted over a sink and tapped very lightly a few times, and then placed inverted on some tissue paper. The presence of clots was readily observed and either scored on a microtiter plate diagram or alternatively the inverted plate was photocopied against a dark background.
Dilutions of chymosin in assay buffer were prepared at 1/1000, 1/1100, 1/1210, 1/1331, 1/1464, 1/1611, 1/1772, 1/1949. 30 μl of each diluted enzyme solution was used in each microtiter well. A solution of the progesterone-inhibitor designated P4SP2, at a concentration of 40 pmol/ml was prepared; 25 μl (1 pmol) being used in each microtiter well. Dilutions of sheep polyclonal antiserum HPS 53-IIb (supplied by Guildhay Antisera) were prepared at 1/50, 1/100 and 1/200; 25 ul of each dilution being used in each microtiter well.
A 1/50 dilution of antibody to progesterone (HPS53 IIb--Guildhay antisera) was used, together with a fixed concentration of progesterone-inhibitor conjugate P4SP2 (100 pmol/ml). The final concentration of conjugate was 1 pmol/well. Progesterone was dissolved in assay buffer at a concentration of 0.5 nmol/ml, to give a final concentration of 7.5 pmol/well. Incubation mixtures containing 0.571 ml of assay buffer containing 0.2% BSA, 0.714 ml of dilute antibody, 0.429 ml of progesterone in assay buffer and 0.286 ml of inhibitor conjugate were prepared. Control incubates were also prepared in which antibody, progesterone, or both were replaced by equivalent volumes of assay buffer. A similar series of incubation mixtures in which progesterone-inhibitor conjugate was replaced by assay buffer was also prepared. These mixtures were incubated at 4° C. for 2 hours. At the end of the incubation, 70 μl of incubate was transferred to each well in duplicate rows on the microtitre plate. Dilution of a 1 mg/ml solution of chymosin in assay buffer were prepared as follows: 1/1210 1/1331, 1/1464, 1/1611, 1/1772, 1/1949, 1/2144, 1/2358, 1/2594, 1/2835, 1/3138, 1/3452. 30 μl of each dilution was added to each well in a column of the microtitre plates. These dilutions gave a final concentration of 0.71, 0.64, 0.58, 0.53, 0.48, 0.44, 0.40, 0.36, 0.33, 0.30, 0.27 and 0.25 pmol/well. 100 ul of milk substrate was added to each well and the plates were incubated for one hour at 37° C. before checking for clotting. In the absence of progesterone, antibody and progesterone-inhibitor conjugate, the limiting concentration of chymosin necessary for clotting is 0.36 pmol/well. […]

[4] = tested on: Polyclonal antiserum to progesterone HPS 53IIb; assay: Radioimmunoassay for immunoreactivity with polyclonal antiserum HPS 53IIb; type: binding, sheep
Excerpt: as §2, §1
Dilutions of chymosin in assay buffer were prepared at 1/1000, 1/1100, 1/1210, 1/1331, 1/1464, 1/1611, 1/1772, 1/1949. 30 μl of each diluted enzyme solution was used in each microtiter well. A solution of the progesterone-inhibitor designated P4SP2, at a concentration of 40 pmol/ml was prepared; 25 μl (1 pmol) being used in each microtiter well. […]

[5] = tested on: Polyclonal antiserum to progesterone HPS 645IIc; assay: Radioimmunoassay for immunoreactivity with polyclonal antiserum HPS 645IIc; type: binding
Excerpt: as §2, §1

[6] = target: Endothia Parasitica Protease (Cryphonectria parasitica, UniProt P11838); assay: Enzyme inhibition with chromogenic peptide substrate; type: biochemical
Chain of Endothia Parasitica Protease (P11838 90-419): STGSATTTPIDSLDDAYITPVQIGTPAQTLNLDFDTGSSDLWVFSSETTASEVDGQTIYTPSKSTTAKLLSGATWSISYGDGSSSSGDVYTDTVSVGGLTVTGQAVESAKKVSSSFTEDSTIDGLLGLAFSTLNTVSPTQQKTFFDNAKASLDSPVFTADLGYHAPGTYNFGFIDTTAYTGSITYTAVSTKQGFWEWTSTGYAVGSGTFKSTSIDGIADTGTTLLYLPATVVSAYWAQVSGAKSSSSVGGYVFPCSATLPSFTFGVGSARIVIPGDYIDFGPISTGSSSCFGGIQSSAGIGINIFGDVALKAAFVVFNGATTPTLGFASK
Excerpt: Enzyme inhibition data was obtained using synthetic peptide substrates containing a chromophoric nitrophenylalanine residue in the position of the scissile bond so that hydroysis can be followed spectrophotometrically. Hydrolysis was followed at 300 nm and the substrate can be used at any pH value (usually between 2-6) at which the enzyme is active. Kinetic parameters for the hydrolysis of a chromogenic peptide substrate by different types of mammalian aspartic proteinases have been reported J. Kay, M. J. Valler and B. M. Dunn, Naturally-occurring inhibitors of Aspartic Proteinases in Proteinase Inhibitors; N. Katunuma, H. Umezawa and H. Holzer Eds., 1983 Springer-Verlag, Berlin (in press).

Chymosin = target: T2, Chymosin (Bos taurus, UniProt P00794); assay: as above; type: biochemical, calf; conditions: pH 6.0
T2 construct: purchased Sigma Chemical Co. Ltd., or from recombinant prochymosin (E. coli) supplied by Celltech Ltd; host or cells: calf enzyme, or E. coli for the recombinant prochymosin
T2 sequence (P00794 59-381): as the sequence (P00794 59-381) above
Excerpt: Enzyme inhibition data was obtained using synthetic peptide substrates containing a chromophoric nitrophenylalanine residue in the position of the scissile bond so that hydroysis can be followed spectrophotometrically. Hydrolysis was followed at 300 nm and the substrate can be used at any pH value (usually between 2-6) at which the enzyme is active.

[7] = Endothia Parasitica Protease, pH 3.1

| Molecule | Immunoreactivity Monoclonal 11P12 [1] [%] | Immunoreactivity Polyclonal (18/3) [2] [%] | Ki ([6]; Endothia, pH 6.0) [nM] | Ki (Chymosin) [nM] | other results |
| --- | --- | --- | --- | --- | --- |
| CC(=O)[C@H]1CC[C@H]2[C@@H]3CCC4=CC(=O)CC[C@]4(C)[C@H]3[C@H](OC3O[C@H](C(=O)O)[C@@H](O)[C@H](O)[C@H]3O)C[C@]12C (stereo partly drawn) [I, Progesterone11α-glucuronide, reference compound] | 151 | 92.1 |  |  |  |
| CC(=O)[C@H]1CC[C@H]2[C@@H]3CCC4=CC(=O)CC[C@]4(C)[C@H]3[C@H](OCC(=O)O)C[C@]12C [II, Progesterone11α-carboxymethylether, reference compound] | 77.4 |  |  |  |  |
| CC(=O)[C@H]1CC[C@H]2[C@@H]3CCC4=CC(=O)CC[C@]4(C)[C@H]3CC[C@]12C [Progesterone, reference compound] |  |  |  |  | limiting concentration of chymosin necessary for clotting ([3]; progesterone alone, 7.5 pmol/well, no conjugate, compared with control 0.36 pmol/well): remains the same |
| CC[C@H](C)[C@H](NC(=O)[C@H](C)NC(=O)C[C@H](O)[C@H](CC(C)C)NC(=O)[C@H](CO)NC(=O)[C@H](CC(C)C)NC(=O)CO[C@@H]1C[C@]2(C)[C@@H](C(C)=O)CC[C@H]2[C@@H]2CCC3=CC(=O)CC[C@]3(C)[C@H]21)C(=O)N1CCC[C@H]1C(=O)N1CCC[C@H]1C(=O)N[C@@H](CCCCN)C(=O)N[C@@H](CCCCN)C(=O)O [VII] (X3-LS[Sta]AIPPKK-OH) | 17.1 | 33.6 | 26 | 6.7 | Immunoreactivity Polyclonal (HPS 53IIb) [4]: 42.1%; Immunoreactivity Polyclonal (HPS 645IIc) [5]: 17.4% |
| CCC(C)C(NC(=O)C(C)NC(=O)CC(O)C(CC(C)C)NC(=O)C(CO)NC(=O)C(CC(C)C)NC(=O)C1OC(OC2CC3(C)C(C(C)=O)CCC3C3CCC4=CC(=O)CCC4(C)C23)C(O)C(O)C1O)C(=O)N1CCCC1C(=O)N1CCCC1C(=O)NC(CCCCN)C(=O)NC(CCCCN)C(=O)O (stereo not shown) [VI] (X1-LS[X2]AIPPKK-OH; configuration not given here) | 3.8 | 16.4 | 470 | 20 | Immunoreactivity Polyclonal (HPS 53IIb) [4]: 34%; milk clotting with conjugate in the presence of antibody ([3]; 1 pmol/well conjugate plus 1/50 antibody HPS53 IIb (FIG. 3)): clotting is restored; milk clotting with conjugate in the presence of antibody and free progesterone ([3]; 1 pmol/well conjugate, 1/50 antibody HPS53 IIb, progesterone 7.5 pmol/well (FIG. 3)): antibody restoration of clotting activity was impaired; modulation by antibody of the conjugate's inhibition of chymosin milk clotting activity ([3]; 1 pmol/well conjugate, antiserum HPS 53-IIb at 1/50, 1/100, 1/200, chymosin dilutions 1/1000-1/1949 (FIG. 1)): can be modulated by the addition of antibody; chymosin required to give a visible clot (limiting concentration of chymosin necessary for clotting) ([3]; 1 pmol/well of the inhibitor conjugate, no antibody, no progesterone, 1 h 37° C., control without additions 0.36 pmol/well): 0.44 pmol/well |
| CCC(C)C(NC(=O)C(C)NC(=O)CC(O)C(CC(C)C)NC(=O)C(CO)NC(=O)C(CC(C)C)NC(=O)C(Cc1c[nH]cn1)NC(=O)C1OC(OC2CC3(C)C(C(C)=O)CCC3C3CCC4=CC(=O)CCC4(C)C23)C(O)C(O)C1O)C(=O)N1CCCC1C(=O)N1CCCC1C(=O)NC(CCCCN)C(=O)NC(CCCCN)C(=O)O (stereo not shown) [V] (X1-HLS[X2]AIPPKK-OH; configuration not given here) | 31.8 | 9.5 | 40 | 52 |  |
| Achisleuserstualaileproprolyslys [IV] |  |  |  |  | Ki [6, 7]: 6 nM |
| Hisleuserphestatalaileproprolyslys [III] |  |  |  |  | Ki [6, 7]: 10 nM |
